Measured values taken from article PMC6314390 (The Journal of General Physiology, 2019).

How the values were obtained:
[1] = biological target: T1, cardiac troponin C (cTnC) (Homo sapiens, UniProt P63316, C35S/C84S); experiment: 2D [1H, […]]-HSQC NMR titration; type: binding
[2] = biological target: T1, cardiac troponin C (cTnC); experiment: 2D [1H, […]]-HSQC NMR titration; type: binding; remark: listed apart in the source

| Kd [2] [µM] | Structure (SMILES) | 2D [1H,15N]-HSQC NMR titration [1] |
| --- | --- | --- |
| – | CC(C)COCC(CN(Cc1ccccc1)c1ccccc1)N1CCCC1 (centres unmarked) [bepridil] | As bepridil is titrated into cTnC, NMR signals corresponding to the cNTnC domain move as the conformational equilibrium shifts |
| 6 ± 1 | Clc1cccc(Nc2ccccc2)c1 [3-Cl-DPA, 3-Chlorodiphenylamine] | – |
